Laboratory results taken from US20110053907A1, “SUBSTITUTED PYRIMIDINES AND TRIAZINES AND THEIR USE IN CANCER THERAPY” (Auckland UniServices Limited, priority 2008, published 2011).
Structures can show the parent of a compound that is named as a salt.

What was measured:
p110α/p85 = p110α/p85 (Homo sapiens, UniProt P42336); test: Reversible inhibition of isolated enzyme, lipid kinase assay; assay type: biochemical; settings: recombinant enzyme, 100 μM ATP, 1 hr, average of two experiments
Method: Compounds were evaluated for their ability to inhibit Class I PI 3-kinase enzymes p110δ/p85, p110α/p85, and p110β/p85. Reaction mixtures comprising 0.1 μg of a recombinant enzyme, 10 μg of L-α-phosphatidylinositol, and 2× Lipid Kinase Buffer (40 mM Tris-HCl, pH 7.4, 200 mM NaCl, 1 mM EDTA), which contains either DMSO only as a control or the test compound in DMSO (the final DMSO concentration is 1%), were activated by the addition of an ATP mix (5 mM MgCl2, 100 μM ATP, and 0.1 μL [γ^33P]ATP). Reactions were incubated at room temperature for 1 hr, and then stopped by the addition of 1M HCl. The lipids were then extracted using a two step procedure. Firstly, 200 μL of chloroform/methanol (1:1) was added, the biphasic reactions mixed and centrifuged briefly, and the inorganic phase was removed and discarded. Following this, 80 μL of methanol:HCl (1:1) was added and the same procedure followed. The organic phase (70 μL) was then transferred to a clean 1.6 mL tube and the reactions were dried using a Speedvac, with no heating, for 30 min. The reactions were spotted onto TLC plates (Merck Ltd) and developed for 1 hr in propanol-1:2 M acetic acid (13:7). The TLC plates were then dried at room temperature and quantified using a phosphorimager (StormImager, Amersham). Nine compound concentrations were used for each test compound to determine its IC50 value. Each experiment was performed twice and the average IC50 value is used herein.

Sequence of p110α/p85 (P42336 whole entry): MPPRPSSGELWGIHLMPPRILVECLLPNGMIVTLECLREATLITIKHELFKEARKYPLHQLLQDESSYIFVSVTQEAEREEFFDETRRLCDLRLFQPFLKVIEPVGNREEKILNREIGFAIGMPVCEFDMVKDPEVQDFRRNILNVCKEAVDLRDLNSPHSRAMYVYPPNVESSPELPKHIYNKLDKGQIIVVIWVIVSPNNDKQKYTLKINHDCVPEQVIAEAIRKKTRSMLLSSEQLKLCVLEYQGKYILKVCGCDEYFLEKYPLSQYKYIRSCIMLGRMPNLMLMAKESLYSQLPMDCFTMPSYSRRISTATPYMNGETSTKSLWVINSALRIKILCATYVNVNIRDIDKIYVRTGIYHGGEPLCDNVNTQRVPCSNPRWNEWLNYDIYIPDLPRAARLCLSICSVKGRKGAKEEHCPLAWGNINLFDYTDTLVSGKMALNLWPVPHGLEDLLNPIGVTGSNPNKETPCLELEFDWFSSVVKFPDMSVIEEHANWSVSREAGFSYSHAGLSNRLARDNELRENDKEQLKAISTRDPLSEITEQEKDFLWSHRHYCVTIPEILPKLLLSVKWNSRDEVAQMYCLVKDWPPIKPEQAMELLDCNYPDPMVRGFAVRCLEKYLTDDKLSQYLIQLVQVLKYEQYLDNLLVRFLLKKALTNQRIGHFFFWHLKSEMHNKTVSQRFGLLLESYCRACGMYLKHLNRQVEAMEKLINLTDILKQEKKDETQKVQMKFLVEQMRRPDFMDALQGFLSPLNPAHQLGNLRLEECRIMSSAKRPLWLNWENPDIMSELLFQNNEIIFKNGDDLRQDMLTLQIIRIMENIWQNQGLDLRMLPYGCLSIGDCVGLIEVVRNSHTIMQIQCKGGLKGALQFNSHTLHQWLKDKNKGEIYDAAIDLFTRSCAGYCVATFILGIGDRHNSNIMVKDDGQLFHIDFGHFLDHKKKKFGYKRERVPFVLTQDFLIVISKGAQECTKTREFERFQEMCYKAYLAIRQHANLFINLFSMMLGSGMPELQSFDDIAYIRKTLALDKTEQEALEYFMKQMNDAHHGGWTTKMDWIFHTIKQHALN
Sequence of p110α/p85 (P27986 whole entry partner): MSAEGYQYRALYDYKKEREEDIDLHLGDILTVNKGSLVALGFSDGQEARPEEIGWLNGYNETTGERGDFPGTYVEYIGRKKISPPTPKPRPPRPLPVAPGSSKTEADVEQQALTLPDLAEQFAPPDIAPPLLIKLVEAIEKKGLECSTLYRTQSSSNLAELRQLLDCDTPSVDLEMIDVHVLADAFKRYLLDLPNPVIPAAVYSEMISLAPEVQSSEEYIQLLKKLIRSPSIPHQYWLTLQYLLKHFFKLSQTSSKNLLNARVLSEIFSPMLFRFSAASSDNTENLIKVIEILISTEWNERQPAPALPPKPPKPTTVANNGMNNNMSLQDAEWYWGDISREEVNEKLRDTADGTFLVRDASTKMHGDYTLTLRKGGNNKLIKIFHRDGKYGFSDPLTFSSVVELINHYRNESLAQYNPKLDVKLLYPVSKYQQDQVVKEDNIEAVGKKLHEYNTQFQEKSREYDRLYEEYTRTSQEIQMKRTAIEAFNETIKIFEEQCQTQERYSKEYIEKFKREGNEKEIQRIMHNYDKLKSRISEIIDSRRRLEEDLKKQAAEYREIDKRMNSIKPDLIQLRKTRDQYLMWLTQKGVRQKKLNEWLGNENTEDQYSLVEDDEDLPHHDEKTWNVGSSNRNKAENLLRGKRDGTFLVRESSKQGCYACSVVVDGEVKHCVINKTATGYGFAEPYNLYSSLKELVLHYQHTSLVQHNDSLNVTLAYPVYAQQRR

| Structure (SMILES) | melting point | IC50 (p110α/p85) |
| --- | --- | --- |
| COc1cccc2c1nc(C(F)F)n2-c1nc(-c2ccncc2)nc(N2CCN(C(=O)CCl)CC2)n1 (as salt: hydrochloride) [Example 6, 1-[4-[4-(chloroacetyl)-1-piperazinyl]-6-(4-pyridinyl)-1,3,5-triazin-2-yl]-2-(difluoromethyl)-4-methoxy-1H-benzimidazole] | > 300 °C | – |
| CN(C)CCCOc1cccc2c1nc(C(F)F)n2-c1nc(N2CCOCC2)nc(N2CCN(S(=O)(=O)CCl)CC2)n1 (as salt: hydrochloride) [Example 13] | 243 to 247 °C | – |
| CN(C)CCCOc1cccc2c1nc(C(F)F)n2-c1nc(N2CCOCC2)nc(N(C)C2CCN(C(=O)CCl)CC2)n1 (as salt: hydrochloride) [Example 20, N-[1-(chloroacetyl)-4-piperidinyl]-4-{2-(difluoromethyl)-4-[3-(dimethylamino)propoxy]-1H-benzimidazol-1-yl}-N-methyl-6-(4-morpholinyl)-1,3,5-triazin-2-amine] | 128 °C (dec.) | – |
| O=C(CCl)N1CCN(c2nc(-c3cccc(O)c3)nc(N3CCOCC3)n2)CC1 [Example 1, 3-[4-[4-(chloroacetyl)-1-piperazinyl]-6-(4-morpholinyl)-1,3,5-triazin-2-yl]phenol] | 242 to 245 °C | – |
| CCOc1cccc2c1nc(C(F)F)n2-c1nc(N2CCOCC2)nc(N2CCN(C(=O)CCl)CC2)n1 [Example 2, 1-[4-[4-(chloroacetyl)-1-piperazinyl]-6-(4-morpholinyl)-1,3,5-triazin-2-yl]-2-(difluoromethyl)-4-ethoxy-1H-benzimidazole] | 217 to 219 °C | – |
| O=C(CCl)N1CCN(c2nc(N3CCOCC3)nc(-n3c(C(F)F)nc4ccccc43)n2)CC1 [Example 3, 1-[4-[4-(Chloroacetyl)-1-piperazinyl]-6-(4-morpholinyl)-1,3,5-triazin-2-yl]-2-(difluoromethyl)-1H-benzimidazole] | 189 to 191 °C | – |
| O=C(CCl)N1CCN(c2nc(N3CCOCC3)nc(-n3c(C(F)F)nc4c(O)cccc43)n2)CC1 [Example 5, 1-[4-[4-(Chloroacetyl)-1-piperazinyl]-6-(4-morpholinyl)-1,3,5-triazin-2-yl]-2-(difluoromethyl)-1H-benzimidazol-4-ol] | 267 to 270 °C | – |
| COc1cccc2c1nc(C(F)F)n2-c1nc(N2CCOCC2)nc(N2CCN(C(=O)C(Cl)Cl)CC2)n1 [Example 7, 1-[4-[4-(dichloroacetyl)-1-piperazinyl]-6-(4-morpholinyl)-1,3,5-triazin-2-yl]-2-(difluoromethyl)-4-methoxy-1H-benzimidazole] | 275 to 278 °C | – |
| COc1cccc2c1nc(C(F)F)n2-c1nc(N2CCOCC2)nc(N2CCN(C(=O)C(Cl)(Cl)Cl)CC2)n1 [Example 8, 2-(difluoromethyl)-1-{4-(4-morpholinyl)-6-[4-(trichloroacetyl)-1-piperazinyl]-1,3,5-triazin-2-yl}-1H-benzimidazol-4-yl methyl ether] | – | < 100 nM |
| COc1cccc2c1nc(C(F)F)n2-c1nc(N2CCOCC2)nc(N2CCN(C(=O)COS(C)(=O)=O)CC2)n1 [Example 9, 2-{4-[4-[2-(difluoromethyl)-4-methoxy-1H-benzimidazol-1-yl]-6-(4-morpholinyl)-1,3,5-triazin-2-yl]-1-piperazinyl}-2-oxoethyl methanesulfonate] | 176 to 180 °C | < 100 nM |
| COc1cccc2c1nc(C(F)F)n2-c1nc(N2CCOCC2)nc(N2CCN(C(=O)C(C)Cl)CC2)n1 (centres unmarked) [Example 10, 1-[4-[4-(2-chloropropanoyl)-1-piperazinyl]-6-(4-morpholinyl)-1,3,5-triazin-2-yl]-2-(difluoromethyl)-4-methoxy-1H-benzimidazole] | – | < 100 nM |
| COc1cccc2c1nc(C(F)F)n2-c1nc(N2CCOCC2)nc(N2CCN(S(=O)(=O)CCl)CC2)n1 [Example 11, 1-[4-{4-[(chloromethyl)sulfonyl]-1-piperazinyl}-6-(4-morpholinyl)-1,3,5-triazin-2-yl]-2-(difluoromethyl)-4-methoxy-1H-benzimidazole] | 261 to 263 °C | < 100 nM |
| COc1cccc2c1nc(C(F)F)n2-c1nc(N2CCOCC2)nc(N2CCN(S(=O)(=O)CBr)CC2)n1 [Example 12, 1-[4-{4-[(bromomethyl)sulfonyl]-1-piperazinyl}-6-(4-morpholinyl)-1,3,5-triazin-2-yl]-2-(difluoromethyl)-4-methoxy-1H-benzimidazole] | 259 to 262 °C | < 100 nM |
| CN(C)CCCOc1cccc2c1nc(C(F)F)n2-c1nc(N2CCOCC2)nc(N2CCN(S(=O)(=O)CCl)CC2)n1 [Example 13] | – | > 1000 nM |
| COc1cccc2c1nc(C(F)F)n2-c1nc(N2CCOCC2)cc(N2CCN(S(=O)(=O)CCl)CC2)n1 [Example 14, 1-[4-{4-[(chloromethyl)sulfonyl]-1-piperazinyl}-6-(4-morpholinyl)-2-pyrimidinyl]-2-(difluoromethyl)-4-methoxy-1H-benzimidazole] | 229 to 232 °C | < 100 nM |
| COc1cccc2c1nc(C(F)F)n2-c1cc(N2CCN(S(=O)(=O)CCl)CC2)nc(N2CCOCC2)n1 [Example 15, 1-[6-{4-[(chloromethyl)sulfonyl]-1-piperazinyl}-2-(4-morpholinyl)-4-pyrimidinyl]-2-(difluoromethyl)-4-methoxy-1H-benzimidazole] | 220 to 222 °C | 100 to 1000 nM |
| COc1cccc2c1nc(C(F)F)n2-c1cc(N2CCOCC2)nc(N2CCN(S(=O)(=O)CCl)CC2)n1 [Example 16, 1-[2-{4-[(chloromethyl)sulfonyl]-1-piperazinyl}-6-(4-morpholinyl)-4-pyrimidinyl]-2-(difluoromethyl)-4-methoxy-1H-benzimidazole] | 215 to 218 °C | < 100 nM |
| COc1cccc2c1nc(C(F)F)n2-c1nc(C2CCN(C(=O)CCl)CC2)nc(N2CCOCC2)n1 [Example 17, 1-[4-[1-(chloroacetyl)-4-piperidinyl]-6-(4-morpholinyl)-1,3,5-triazin-2-yl]-2-(difluoromethyl)-4-methoxy-1H-benzimidazole] | 241 to 243 °C | < 100 nM |
| COc1cccc2c1nc(C(F)F)n2-c1nc(NC2CCN(C(=O)CCl)CC2)nc(N2CCOCC2)n1 [Example 18, N-[1-(chloroacetyl)-4-piperidinyl]-4-[2-(difluoromethyl)-4-methoxy-1H-benzimidazol-1-yl]-6-(4-morpholinyl)-1,3,5-triazin-2-amine] | 270 to 273 °C | < 100 nM |
| COc1cccc2c1nc(C(F)F)n2-c1nc(N2CCOCC2)nc(N(C)C2CCN(C(=O)CCl)CC2)n1 [Example 19, N-[1-(chloroacetyl)-4-piperidinyl]-4-[2-(difluoromethyl)-4-methoxy-1H-benzimidazol-1-yl]-N-methyl-6-(4-morpholinyl)-1,3,5-triazin-2-amine] | 211 to 213 °C | < 100 nM |
| CN(C)CCCOc1cccc2c1nc(C(F)F)n2-c1nc(N2CCOCC2)nc(N(C)C2CCN(C(=O)CCl)CC2)n1 [Example 20, N-[1-(chloroacetyl)-4-piperidinyl]-4-{2-(difluoromethyl)-4-[3-(dimethylamino)propoxy]-1H-benzimidazol-1-yl}-N-methyl-6-(4-morpholinyl)-1,3,5-triazin-2-amine] | – | 100 to 1000 nM |
| CN(C)CCCOc1cccc2c1nc(C(F)F)n2-c1nc(N2CCOCC2)nc(N2CCC(N(C)C(=O)CCl)CC2)n1 [Example 24, 2-chloro-N-{1-[4-{2-(difluoromethyl)-4-[3-(dimethylamino)propoxy]-1H-benzimidazol-1-yl}-6-(4-morpholinyl)-1,3,5-triazin-2-yl]-4-piperidinyl}-N-methylacetamide] | – | 100 to 1000 nM |
| COc1cccc2c1nc(C(F)F)n2-c1nc(N2CCOCC2)nc(N2CC[C@H](NC(=O)CCl)C2)n1 [Example 26, 2-chloro-N-{(3S)-1-[4-[2-(difluoromethyl)-4-methoxy-1H-benzimidazol-1-yl]-6-(4-morpholinyl)-1,3,5-triazin-2-yl]pyrrolidinyl}acetamide] | – | < 100 nM |
| COc1cccc2c1nc(C(F)F)n2-c1nc(N2CCOCC2)nc(N2CCC[C@H](N(C)C(=O)CCl)C2)n1 [Example 36, 2-chloro-N-{(3S)-1-[4-[2-(difluoromethyl)-4-methoxy-1H-benzimidazol-1-yl]-6-(4-morpholinyl)-1,3,5-triazin-2-yl]piperidinyl}-N-methylacetamide] | – | < 100 nM |
| COc1cccc2c1nc(C(F)F)n2-c1nc(N[C@H]2CCCN(C(=O)CCl)C2)nc(N2CCOCC2)n1 [Example 38] | – | < 100 nM |
| CN(C)CCCOc1cccc2c1nc(C(F)F)n2-c1nc(OC2CCN(C(=O)CCl)CC2)nc(N2CCOCC2)n1 [Example 46, 3-{[1-[4-{[1-(chloroacetyl)-4-piperidinyl]oxy}-6-(4-morpholinyl)-1,3,5-triazin-2-yl]-2-(difluoromethyl)-1H-benzimidazol-4-yl]oxy}-N,N-dimethyl-1-propanamine] | – | 100 to 1000 nM |
